In patent publication US9617216B2, “Antifungal oxodihydropyridinecarbohydrazide derivative” (Daewoong Pharmaceutical Co., Ltd., priority 2013, dated 2017):
Converted amounts (≈) assume the structure as drawn.

test system: Candida albicans; assay: In vitro antifungal activity test (MIC), Candida albicans; assay type: cell-based; conditions: Candida albicans; concentration at which growth is inhibited by 80% vs negative control; 35° C., 24 hours, RPMI 1640, alama blue
Method: The antifungal activities of the compounds of the present invention were evaluated using Candida albicans as yeast fungus, and Aspergillus fumigatus as a filamentous fungus. The above fungi used were all purchased from American Type Culture Collection (ATCC). The strains used in the experiment were inoculated into a Sabouraud dextrose agar medium, and then cultured at 35° C. for a sufficient period of time, e.g., 24 hours for Candida albicans, and about 7 days for Aspergillus fumigatus. As for Candida albicans, about 5 to 7 single colonies were taken from the cultured medium, sufficiently suspended in 1 ml of 0.85% sterile saline solution, and adjusted to have an optical density of 0.095 to 0.107 at 530 nm. A preparation of a strain diluent was diluted in Roswell park memorial institute (RPMI) 1640 medium at a 1:10 ratio, and the resultant was diluted again at a 1:100 ratio to obtain an inoculation preparation for Candida albicans with a concentration of 1.0×10^3 to 5.0×10^3 CFU/mL. As for Aspergillus fumigatus, the cultured Sabouraud dextrose agar was added with 1 mL of 0.2% Tween 20 diluted with 0.85% sterile saline solution, and then the plate was shaken to detach conidium from the plate. The solution collected from the plate surface was transferred into a sterile tube, and placed at room temperature for 5 minutes to deposit heavy substances. The resulting supernatant was transferred into the sterile tube, sufficiently suspended for about 15 seconds, and prepared a strain diluent with a concentration of 0.4×10^6 to 5.0×10^6 CFU/mL using a hemocytometer. The thus prepared strain diluent was diluted in RPMI 1640 medium at a 1:100 ratio to obtain an inoculation preparation for Aspergillus fumigatus. Candida albicans was cultured at 35° C. for 24 hours and Aspergillus fumigatus was cultured at 35° C. for 48 hours, and the concentrations, at which growth is inhibited by 80% or 50% compared to a negative control group, were determined using alama blue color developing reagent. All experiments were repeated twice for each concentration, and the results of antifungal activities (MIC80 MIC50 μg/mL) are shown in Tables 1 to 2.

SMILES	MIC80
O=C(NNc1ccc(F)cc1)c1ccc(=O)n(-c2cccc(C(F)(F)F)c2)c1 [Example 46, N′-(4-fluorophenyl)-6-oxo-1-(3-(trifluoromethyl)phenyl)-1,6-dihydropyridine-3-carbohydrazide]	0.31 µg/mL (≈ 0.792 µM)
O=C(Cn1cc(C(=O)NNc2ccc(F)cc2)ccc1=O)Nc1ccc(C(F)(F)F)cc1 [Example 72, 2-(5-(2-(4-fluorophenyl)hydrazinecarbonyl)-2-oxopyridine-1(2H)-yl)-N-(4-(trifluoromethyl)phenyl)acetamide]	0.09 µg/mL (≈ 0.201 µM)
Cn1cc(C(=O)NNc2ccc(F)cc2F)cc(Cl)c1=O [Example 30, 5-chloro-N′-(2,4-difluorophenyl)-1-methyl-6-oxo-1,6-dihydropyridine-3-carbohydrazide]	0.31 µg/mL (≈ 0.988 µM)
O=C(Cn1cc(C(=O)NNc2ccc(F)c(F)c2)ccc1=O)c1ccc(C(F)(F)F)cc1 [Example 70, N′-(3,4-difluorophenyl)-6-oxo-1-(2-oxo-2-(4-(trifluoromethyl)phenyl)ethyl)-1,6-dihydropyridine-3-carbohydrazide]	0.09 µg/mL (≈ 0.199 µM)
O=C1NNc2cc(F)ccc2C(=O)OCC/C=C/Cn2cc1ccc2=O [Example 79, (1^5E,10E)-5^5-fluoro-1^1,1^2-dihydro-7-oxa-3,4-diaza-1(5,1)-pyridina-5(1,2)-benzenacyclododecaphan-10-ene-1^2,2,6-trione]	8.93 µg/mL (≈ 25 µM)
O=C(Cn1cc(C(=O)NNc2ccc(F)cc2)ccc1=O)c1ccc(C(F)(F)F)cc1 [Example 69, N′-(4-fluorophenyl)-6-oxo-1-(2-oxo-2-(4-(trifluoromethyl)phenyl)ethyl)-1,6-dihydropyridine-3-carbohydrazide]	0.68 µg/mL (≈ 1.57 µM)
Cn1cc(C(=O)NNc2cccc(F)c2)c(Nc2ccc(C(F)(F)F)cc2)cc1=O [Example 35, N′-(3-fluorophenyl)-1-methyl-6-oxo-4-((4-(trifluoromethyl)phenyl)amino)-1,6-dihydropyridine-3-carbohydrazide]	0.16 µg/mL (≈ 0.381 µM)
O=C(NNc1ccc(F)cc1)c1ccc(=O)n(CCN2CCOCC2)c1 [Example 74, N′-(4-fluorophenyl)-1-(2-morpholinoethyl)-6-oxo-1,6-dihydropyridine-3-carbohydrazide]	0.56 µg/mL (≈ 1.55 µM)
Cn1cc(C(=O)NNc2cc(F)cc(F)c2)cc(Cl)c1=O [Example 32, 5-chloro-N′-(3,5-difluorophenyl)-1-methyl-6-oxo-1,6-dihydropyridine-3-carbohydrazide]	0.03 µg/mL (≈ 0.0956 µM)
O=C(NNc1ccc(F)cc1)c1ccc(=O)n(CCN2CCN(c3ccc(C(F)(F)F)cc3)CC2)c1 [Example 56, N′-(4-fluorophenyl)-6-oxo-1-(2-(4-(4-(trifluoromethyl)phenyl)piperazin-1-yl)ethyl)-1,6-dihydropyridine-3-carbohydrazide]	0.79 µg/mL (≈ 1.57 µM)
O=C(NNc1ccc(F)cc1)c1ccc(=O)n(Cc2ccc(C(F)(F)F)nc2)c1 [Example 51, N′-(4-fluorophenyl)-6-oxo-1-((6-(trifluoromethyl)pyridine-3-yl)methyl)-1,6-dihydropyridine-3-carbohydrazide]	0.16 µg/mL (≈ 0.394 µM)
O=C1NNc2ccccc2OCC/C=C/Cn2cc1ccc2=O [Example 81, (1^5E,9E)-1^1,1^2-dihydro-6-oxa-3,4-diaza-1(5,1)-pyridina-5(1,2)-benzenacycloundecaphan-9-ene-1^2,2-dione]	1.95 µg/mL (≈ 6.26 µM)
O=C(NNc1cccc(F)c1)c1ccc(=O)n(CCOc2cccc(C(F)(F)F)c2)c1 [Example 63, N′-(3-fluorophenyl)-6-oxo-1-(2-(3-(trifluoromethyl)phenoxy)ethyl)-1,6-dihydropyridine-3-carbohydrazide]	0.09 µg/mL (≈ 0.207 µM)

More lines, now with the values ahead:

MIC80	SMILES
0.23 µg/mL (≈ 0.778 µM)	Cn1cc(C(=O)NNc2cccc(F)c2)c(Cl)cc1=O [Example 22, 4-chloro-N′-(3-fluorophenyl)-1-methyl-6-oxo-1,6-dihydropyridine-3-carbohydrazide]
0.07 µg/mL (≈ 0.207 µM)	Cn1cc(C(=O)NNc2cccc(F)c2)cc(-c2ccccn2)c1=O [Example 41, N′-(3-fluorophenyl)-1-methyl-6-oxo-5-(pyridine-2-yl)-1,6-dihydropyridine-3-carbohydrazide]
0.11 µg/mL (≈ 0.396 µM)	Cn1cc(C(=O)NNc2cccc(Cl)c2)ccc1=O [Example 4, N′-(3-chlorophenyl)-1-methyl-6-oxo-1,6-dihydropyridine-3-carbohydrazide]
0.08 µg/mL (≈ 0.207 µM)	O=C(NNc1cccc(F)c1)c1ccc(=O)n(CCc2cccc(Cl)c2)c1 [Example 57, 1-(3-chlorophenethyl)-N′-(3-fluorophenyl)-6-oxo-1,6-dihydropyridine-3-carbohydrazide]
0.56 µg/mL (≈ 1.55 µM)	O=C(NNc1cccc(F)c1)c1ccc(=O)n(CCN2CCOCC2)c1 [Example 73, N′-(3-fluorophenyl)-1-(2-morpholinoethyl)-6-oxo-1,6-dihydropyridine-3-carbohydrazide]
0.23 µg/mL (≈ 0.778 µM)	Cn1cc(C(=O)NNc2ccc(F)cc2)cc(Cl)c1=O [Example 25, 5-chloro-N′-(4-fluorophenyl)-1-methyl-6-oxo-1,6-dihydropyridine-3-carbohydrazide]
0.26 µg/mL (≈ 0.782 µM)	CN(C)C(=O)Cn1cc(C(=O)NNc2cccc(F)c2)ccc1=O [Example 75, 2-(5-(2-(3-fluorophenyl)hydrazine-1-carbonyl)-2-oxopyridine-1(2H)-yl)-N,N-dimethylacetamide]
0.16 µg/mL (≈ 0.398 µM)	O=C(NNc1cccc(F)c1)c1ccc(=O)n(CCOc2ccc(Cl)cc2)c1 [Example 62, 1-(2-(4-chlorophenoxy)ethyl)-N′-(3-fluorophenyl)-6-oxo-1,6-dihydropyridine-3-carbohydrazide]
0.06 µg/mL (≈ 0.191 µM)	Cn1cc(C(=O)NNc2ccc(F)c(F)c2)cc(Cl)c1=O [Example 31, 5-chloro-N′-(3,4-difluorophenyl)-1-methyl-6-oxo-1,6-dihydropyridine-3-carbohydrazide]
0.46 µg/mL (≈ 1.56 µM)	Cn1cc(C(=O)NNc2ccc(F)cc2)c(Cl)cc1=O [Example 23, 4-chloro-N′-(4-fluorophenyl)-1-methyl-6-oxo-1,6-dihydropyridine-3-carbohydrazide]
0.12 µg/mL (≈ 0.406 µM)	Cn1cc(C(=O)NNc2ccc(F)c(Cl)c2)ccc1=O [Example 17, N′-(3-chloro-4-fluorophenyl)-1-methyl-6-oxo-1,6-dihydropyridine-3-carbohydrazide]
0.27 µg/mL (≈ 0.786 µM)	O=C(NNc1cccc(F)c1)c1ccc(=O)n(CC2CCCCC2)c1 [Example 66, 1-(cyclohexylmethyl)-N′-(3-fluorophenyl)-6-oxo-1,6-dihydropyridine-3-carbohydrazide]
1.04 µg/mL (≈ 3.13 µM)	CN(C)C(=O)Cn1cc(C(=O)NNc2ccc(F)cc2)ccc1=O [Example 77, 2-(5-(2-(4-fluorophenyl)hydrazinecarbonyl)-2-oxopyridine-1(2H)-yl)-N,N-dimethylacetamide]
0.1 µg/mL (≈ 0.373 µM)	Cn1cc(C(=O)NNc2cccc(C#N)c2)ccc1=O [Example 6, N′-(3-cyanophenyl)-1-methyl-6-oxo-1,6-dihydropyridine-3-carbohydrazide]
0.12 µg/mL (≈ 0.393 µM)	COCCn1cc(C(=O)NNc2cccc(F)c2)ccc1=O [Example 76, N′-(3-fluorophenyl)-1-(2-methoxyethyl)-6-oxo-1,6-dihydropyridine-3-carbohydrazide]
0.56 µg/mL (≈ 1.57 µM)	O=C(NNc1ccc(F)cc1)c1ccc(=O)n(-c2cccc(Cl)c2)c1 [Example 47, 1-(3-chlorophenyl)-N′-(4-fluorophenyl)-6-oxo-1,6-dihydropyridine-3-carbohydrazide]
